From ChEMBL document CHEMBL1201862, “PubChem BioAssay data set” (2004) come the findings set out here.

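1) Cells in 96-well plates. 2) Compound, 48 h, 5 concentrations. 3) Linear interpolation between surrounding doses. 4) Unreached endpoint = highest concentration. GI50 marks 50% less growth.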 Activity calls are given as the source filed them. No stated cut-off is given here; in the data, active = GI50 up to about 1.1 µM and inactive = higher.

Among the test systems are HOP-62; NCI/ADR-RES; OVCAR-4; OVCAR-8; A549; SK-MEL-2; ACHN; KM12; COLO 205; UACC-257; SR; U-251; NCI-H23; HCT-15; RPMI-8226; SW-620; CCRF-CEM; RXF 393; NCI-H522; LOX IMVI.
What all share (test): NCI anticancer screen, dose series, 48 h

For `CCC1([N+](=O)[O-])CC2C=CC1C2` (stereo not given), the GI50 with HOP-62, in the test with NCI/ADR-RES, with OVCAR-4, with OVCAR-8, in the test with A549 and with SK-MEL-2 was > 100 µM (inactive) in each case. For the same molecule, the GI50 in the test on ACHN, with KM12, in the test on COLO 205, in the test with UACC-257, in the test with SR and in the test on U-251 was > 100 µM (inactive) in each case. Besides, the GI50 in the test on NCI-H23 was > 100 µM (inactive); in the test with HCT-15, greater than 100 µM; in the test on RPMI-8226, > 100 µM (inactive); in the test on SW-620 it was > 100 µM (inactive); in the test on CCRF-CEM, > 100 µM (inactive); in the test with RXF 393, > 100 µM (inactive). Moreover, the GI50 in the test on NCI-H522 and in the test on LOX IMVI was > 100 µM (inactive) throughout.

Turning to `Cc1cn(C2CC(O)C(Cn3cc(Cn4ncc(=O)[nH]c4=O)nn3)O2)c(=O)[nH]c1=O` (stereo not given), the GI50 with HOP-62, with NCI/ADR-RES, in the test with OVCAR-4, with OVCAR-8, in the test on A549 and in the test on SK-MEL-2 was > 100 µM (inactive) in each case. The GI50 with ACHN, in the test with KM12, in the test on COLO 205, in the test on UACC-257, in the test with SR and in the test on U-251 was > 100 µM (inactive) throughout. Besides, the GI50 with NCI-H23 was > 100 µM (inactive); with HCT-15, greater than 100 µM; in the test with RPMI-8226, > 100 µM (inactive); in the test on SW-620, > 100 µM (inactive); in the test on CCRF-CEM, 0.478 µM (active); with RXF 393, > 100 µM (inactive). The GI50 in the test with NCI-H522 and in the test on LOX IMVI was > 100 µM (inactive) throughout.

Regarding `O=C(NCc1ccccc1)c1cc2ccccc2o/c1=N\c1ccccc1F`, the GI50 is 15.6 µM (inactive) in the test with HOP-62; 46.7 µM (inactive) in the test on NCI/ADR-RES; 13.5 µM (inactive) with OVCAR-4; 14.3 µM (inactive) in the test on OVCAR-8; 18.1 µM (inactive) in the test on A549; 28.1 µM (inactive) in the test on SK-MEL-2. The GI50 in the test with ACHN was 19.5 µM (inactive); with KM12 it was 25.7 µM (inactive); in the test with COLO 205, 26.4 µM (inactive); in the test with UACC-257, 34.4 µM (inactive); in the test with SR, 32.7 µM (inactive); in the test with U-251, 35.5 µM (inactive). The GI50 in the test on NCI-H23 was 21.5 µM (inactive); with HCT-15 it was 51.2 µM; in the test on RPMI-8226 it was > 100 µM (inactive); with SW-620, 26.1 µM (inactive); in the test on CCRF-CEM it was > 100 µM (inactive); with RXF 393, 21.5 µM (inactive). The figures for the GI50 with NCI-H522 and in the test on LOX IMVI were 22 µM (inactive) and 14.9 µM (inactive), respectively.

In the case of `Cc1csc2nc3c(cnn3C)c(=S)n12`, the GI50 was 50 µM (inactive) with HOP-62; > 100 µM (inactive) in the test on NCI/ADR-RES; > 100 µM (inactive) in the test with OVCAR-4; > 100 µM (inactive) with OVCAR-8; > 100 µM (inactive) in the test with A549; 41.9 µM (inactive) in the test on SK-MEL-2. Moreover, the GI50 in the test on ACHN is 44.5 µM (inactive); with KM12, > 100 µM (inactive); with COLO 205, > 10 µM (inactive); in the test on UACC-257, > 100 µM (inactive); in the test with SR, > 100 µM (inactive); in the test with U-251, 95.3 µM (inactive). Further, the GI50 was > 100 µM (inactive) in the test with NCI-H23; 71.4 µM in the test with HCT-15; > 100 µM (inactive) in the test on RPMI-8226; > 100 µM (inactive) with SW-620; 87.7 µM (inactive) in the test on CCRF-CEM; 35.1 µM (inactive) in the test on RXF 393. The results for the GI50 in the test with NCI-H522 and in the test with LOX IMVI were 11 µM (inactive) and 51.6 µM (inactive), respectively.

For the molecule `CSC1(SC)CCCCCCCCCCC1`, the GI50 with HOP-62 is 49.7 µM (inactive); in the test on NCI/ADR-RES, 41.2 µM (inactive); in the test with OVCAR-4, 49.4 µM (inactive); with OVCAR-8, 45.5 µM (inactive); in the test with A549, 31.6 µM (inactive); in the test with SK-MEL-2 it was 24 µM (inactive). For the same molecule, the GI50 in the test with ACHN is 34.2 µM (inactive); in the test on KM12 it was 41.7 µM (inactive); in the test with COLO 205, 19.2 µM (inactive); in the test with UACC-257, 27.5 µM (inactive); in the test on SR, 43.7 µM (inactive); in the test on U-251, 32.4 µM (inactive). For the same molecule, the GI50 with NCI-H23 is 68.9 µM (inactive); in the test on HCT-15, 48.1 µM; with RPMI-8226, 78.5 µM (inactive); in the test with SW-620, 44.6 µM (inactive); in the test with CCRF-CEM, 22.9 µM (inactive); with RXF 393, 25 µM (inactive). Besides, the GI50 is 16.3 µM (inactive) with NCI-H522 and 18.7 µM (inactive) in the test with LOX IMVI.

As for `CCOP(=O)(OCC)/C(=C/n1c(=S)[nH]c2ccccc21)C(=O)OC`, the GI50 in the test on HOP-62 was > 100 µM (inactive); with NCI/ADR-RES, > 100 µM (inactive); in the test with OVCAR-4, 45.1 µM (inactive); in the test on OVCAR-8, > 100 µM (inactive); with A549, > 100 µM (inactive); in the test on SK-MEL-2, > 100 µM (inactive). The GI50 in the test on ACHN, in the test on KM12, with COLO 205, in the test with UACC-257, in the test with SR and in the test with U-251 was > 100 µM (inactive) in each case. In addition, the GI50 with NCI-H23 is > 100 µM (inactive); with HCT-15, 11.7 µM; with RPMI-8226 it was > 100 µM (inactive); in the test on SW-620, > 100 µM (inactive); in the test with CCRF-CEM, > 100 µM (inactive); with RXF 393, > 100 µM (inactive). Moreover, the GI50 in the test on NCI-H522 and with LOX IMVI was > 100 µM (inactive) throughout.

Regarding `COc1ccc(CCNC2=CC(=O)c3ncccc3C2=O)cc1OC`, the GI50 with HOP-62 is 1.89 µM (inactive); in the test on NCI/ADR-RES, 2.28 µM (inactive); with OVCAR-4, 2.47 µM (inactive); with OVCAR-8 it was 2.54 µM (inactive); in the test with A549, 0.918 µM (active); in the test on SK-MEL-2, 1.48 µM (inactive). Further, the GI50 with ACHN was 3.67 µM (inactive); in the test with KM12, 3.59 µM (inactive); in the test with COLO 205, 1.79 µM (inactive); with UACC-257, 1.19 µM (inactive); with SR it was 4.24 µM (inactive); in the test with U-251, 0.863 µM (active). Further, the GI50 was 0.346 µM (active) in the test on NCI-H23; 0.918 µM with HCT-15; 5.57 µM (inactive) in the test with RPMI-8226; 1.68 µM (inactive) in the test with SW-620; 5.9 µM (inactive) with CCRF-CEM; 3.9 µM (inactive) in the test on RXF 393. Also, the GI50 is 2.11 µM (inactive) in the test on NCI-H522 and 0.426 µM (active) with LOX IMVI.

On to `COC(=O)c1ccccc1C1CN=NC12Cc1cccc(C)c1C2=O` (stereo not given), for which the GI50 with HOP-62 is 45.2 µM (inactive); in the test on NCI/ADR-RES, 9.84 µM (inactive); in the test on OVCAR-4, 33 µM (inactive); with OVCAR-8, 42.4 µM (inactive); in the test with A549 it was 39.3 µM (inactive); with SK-MEL-2, 46.1 µM (inactive). For the same molecule, the GI50 in the test with ACHN is 35.3 µM (inactive); in the test on KM12, 26.8 µM (inactive); in the test with COLO 205 it was > 10 µM (inactive); in the test with UACC-257, 37.3 µM (inactive); in the test on SR it was 94.4 µM (inactive); in the test with U-251, 56 µM (inactive). For the same molecule, the GI50 is 51.9 µM (inactive) in the test on NCI-H23; 46.5 µM with HCT-15; 29 µM (inactive) with RPMI-8226; > 100 µM (inactive) in the test on SW-620; 52.7 µM (inactive) in the test on CCRF-CEM; 11.5 µM (inactive) in the test on RXF 393. Also, the GI50 in the test with NCI-H522 is 27.3 µM (inactive); with LOX IMVI, 55 µM (inactive).

Take `COc1ccc(Nc2nc(N)c(C(=O)c3ccco3)s2)cc1`: the GI50 was > 63.8 µM (inactive) in the test on HOP-62; 26.1 µM (inactive) in the test on NCI/ADR-RES; > 48.1 µM (inactive) with OVCAR-4; > 100 µM (inactive) in the test on OVCAR-8; 27.3 µM (inactive) in the test with A549; 23 µM (inactive) in the test on SK-MEL-2. The GI50 is 47.8 µM (inactive) in the test on ACHN; 8.59 µM (inactive) in the test with KM12; 13.4 µM (inactive) with COLO 205; 41.7 µM (inactive) in the test with UACC-257; 0.955 µM (active) in the test with SR; 40.4 µM (inactive) in the test with U-251. For the same molecule, the GI50 was > 61.4 µM (inactive) with NCI-H23; 6.58 µM with HCT-15; 16.6 µM (inactive) with RPMI-8226; 13.2 µM (inactive) in the test with SW-620; 5.47 µM (inactive) in the test with CCRF-CEM; 31.8 µM (inactive) in the test on RXF 393. In addition, the GI50 in the test on NCI-H522 was 7.71 µM (inactive); in the test with LOX IMVI, 32.5 µM (inactive).

On to `O=C1/C(=C/c2ccc([N+](=O)[O-])cc2)CNC/C1=C\c1ccc([N+](=O)[O-])cc1`, for which the GI50 in the test on HOP-62 is 4.55 µM (inactive); in the test with NCI/ADR-RES, 5.09 µM (inactive); in the test on OVCAR-4 it was 3.63 µM (inactive); in the test with OVCAR-8, 3.13 µM (inactive); with A549, 17.5 µM (inactive); with SK-MEL-2 it was 31.8 µM (inactive). Moreover, the GI50 is 12.3 µM (inactive) in the test on ACHN; 1.36 µM (inactive) with KM12; 5.62 µM (inactive) in the test on COLO 205; 45.5 µM (inactive) in the test on UACC-257; 0.241 µM (active) in the test with SR; 0.469 µM (active) in the test on U-251. The GI50 in the test with NCI-H23 is 4.62 µM (inactive); in the test on HCT-15, 1.13 µM; in the test on RPMI-8226, 0.382 µM (active); with SW-620, 0.638 µM (active); with CCRF-CEM, 0.229 µM (active); with RXF 393, 12.2 µM (inactive). The GI50 was 2.52 µM (inactive) in the test with NCI-H522 and 2.09 µM (inactive) in the test with LOX IMVI.
